In ChEMBL document CHEMBL1201862, “PubChem BioAssay data set” (2004):
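Exposure lasted 48 hours, with cells grown in 96-well plates and compounds tested at five concentrations. Here, GI50 denotes the concentration required for 50% inhibition of growth.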 Active and inactive are the calls of the source. No stated cut-off is given here; in the data, active = GI50 up to about 1.1 µM and inactive = higher.

What was measured:
Experiment in all cases: NCI-60 cell line screen, 48 h
EKVX = system: EKVX
UO-31 = system: UO-31
786-0 = system: 786-0
SNB-19 = system: SNB-19
U-251 = system: U-251
SK-MEL-2 = system: SK-MEL-2
IGROV-1 = system: IGROV-1
ACHN = system: ACHN
TK-10 = system: TK-10
RXF 393 = system: RXF 393
SF-295 = system: SF-295
HCT-116 = system: HCT-116
NCI-H460 = system: NCI-H460
NCI-H522 = system: NCI-H522
SK-MEL-5 = system: SK-MEL-5
OVCAR-4 = system: OVCAR-4
UACC-62 = system: UACC-62
SR = system: SR

Measured: GI50

CCCCN(CCCC)C(=Nc1ccccc1)N(CCCC)CCCC
inactive: EKVX 4.35 µM | UO-31 2.81 µM | 786-0 3.3 µM | SNB-19 6.81 µM | U-251 1.95 µM | SK-MEL-2 6.64 µM | IGROV-1 3.15 µM | ACHN 3.55 µM | TK-10 10.1 µM | RXF 393 5.02 µM | SF-295 5.38 µM | HCT-116 1.67 µM | NCI-H460 3.34 µM | NCI-H522 2.17 µM

Cc1c(-c2coc(-c3ccc([N+](=O)[O-])cc3)n2)c(=O)n(-c2ccccc2)n1C
inactive: EKVX > 100 µM | UO-31 > 100 µM | 786-0 > 100 µM | SK-MEL-5 > 100 µM | U-251 > 100 µM | SK-MEL-2 > 100 µM | IGROV-1 > 100 µM | ACHN > 100 µM | TK-10 > 100 µM | SF-295 > 100 µM | OVCAR-4 > 100 µM | HCT-116 > 100 µM | NCI-H460 > 100 µM | NCI-H522 > 100 µM | UACC-62 > 100 µM

CC(=O)OCCOCBr
inactive: EKVX > 100 µM | UO-31 > 100 µM | 786-0 > 100 µM | SK-MEL-5 > 100 µM | U-251 > 100 µM | SK-MEL-2 > 100 µM | IGROV-1 > 100 µM | ACHN > 100 µM | TK-10 > 100 µM | RXF 393 > 100 µM | SF-295 > 100 µM | OVCAR-4 > 100 µM | HCT-116 > 100 µM | NCI-H460 > 100 µM | NCI-H522 > 100 µM | UACC-62 > 100 µM

O=C1C2c3[nH]c4ccccc4c3C3CCCCCCC3C2C(=O)N1c1ccccc1 (centres undefined)
inactive: EKVX 24.9 µM | 786-0 8.67 µM | SK-MEL-5 33 µM | U-251 4.46 µM | IGROV-1 > 10 µM | ACHN 8.24 µM | TK-10 12 µM | RXF 393 7.74 µM | SR 14.9 µM | SF-295 2.91 µM | OVCAR-4 3.87 µM | NCI-H460 4.91 µM | UACC-62 32.9 µM

CC(=O)OCCC(O[Si](c1ccccc1)(c1ccccc1)C(C)(C)C)C(C)(C)O (centres undefined)
inactive: EKVX 48.4 µM | UO-31 22.1 µM | 786-0 27.4 µM | SNB-19 63.1 µM | SK-MEL-5 51.6 µM | U-251 36.3 µM | SK-MEL-2 75 µM | IGROV-1 36.3 µM | ACHN 29.4 µM | TK-10 34.4 µM | RXF 393 17.6 µM | SF-295 21.6 µM | OVCAR-4 64.1 µM | HCT-116 17.3 µM | NCI-H460 32.1 µM | NCI-H522 20 µM | UACC-62 53.8 µM

O=C(CC1(O)C(=O)Nc2ccccc21)c1ccc(Cl)cc1Cl (centres undefined)
inactive: EKVX > 100 µM | UO-31 > 100 µM | 786-0 > 100 µM | SNB-19 > 100 µM | SK-MEL-5 > 100 µM | SK-MEL-2 > 100 µM | IGROV-1 > 100 µM | ACHN > 100 µM | TK-10 > 100 µM | RXF 393 > 100 µM | SF-295 > 100 µM | OVCAR-4 > 100 µM | HCT-116 > 100 µM | NCI-H522 > 100 µM | UACC-62 > 100 µM

COC(=O)c1nc(NC#N)nc(O)c1C
inactive: EKVX > 100 µM | UO-31 > 51.8 µM | 786-0 > 100 µM | SNB-19 > 67.9 µM | SK-MEL-5 > 100 µM | U-251 > 85.7 µM | SK-MEL-2 > 100 µM | IGROV-1 > 72.9 µM | ACHN > 73.6 µM | TK-10 > 100 µM | RXF 393 > 100 µM | SF-295 > 100 µM | OVCAR-4 > 100 µM | HCT-116 > 61.1 µM | NCI-H460 > 100 µM | NCI-H522 > 80.4 µM | UACC-62 > 61.1 µM

CCOc1ccc(NC(=O)C2=C(C)NC(C)=C(C(=O)Nc3ccc(OCC)cc3)C2c2ccc([N+](=O)[O-])cc2)cc1
inactive: EKVX 29 µM | UO-31 17.7 µM | 786-0 29.3 µM | SNB-19 36 µM | SK-MEL-5 15.3 µM | U-251 27.8 µM | SK-MEL-2 16.2 µM | IGROV-1 49 µM | ACHN 21.1 µM | TK-10 17.9 µM | RXF 393 14 µM | SF-295 38 µM | OVCAR-4 9.29 µM | NCI-H460 22.9 µM | NCI-H522 22.6 µM

O=C(Nc1ccccc1-c1nn(C(=S)Nc2ccccc2)c(=S)n(C(=S)Nc2ccccc2)c1=O)C(F)(F)F
inactive: EKVX 27.6 µM | UO-31 11.9 µM | 786-0 32.1 µM | SNB-19 35.4 µM | SK-MEL-5 11.7 µM | U-251 25.6 µM | SK-MEL-2 22.2 µM | IGROV-1 21.5 µM | ACHN 24.4 µM | TK-10 35.3 µM | RXF 393 34 µM | SF-295 31.3 µM | OVCAR-4 17.1 µM | HCT-116 16.6 µM | NCI-H460 21.3 µM | NCI-H522 13.6 µM | UACC-62 17.3 µM
